Results on five compounds are retold here after patent US11643405B2, “Compound for treatment or prevention of liver diseases” (JIANGSU ATOM BIOSCIENCE AND PHARMACEUTICAL CO., LTD., priority 2018, dated 2023).

≈ marks a conversion by molar mass, not a printed value. Marks after values point to notes of the source that are not given here.

Data set [1] is described as follows: Determination of compound solubility in PBS buffer (LC-MS/MS). In kind it is physicochemical. The settings on record: for solubility at 2 h: 25 °C, kinetic from dmso stock; for Solubility in PBS buffer solution compared with silymarin (in words): pH 4. On the procedure:
The test compounds were 7, 67 and 85, respectively; the control compound was silymarin, purchased from Shanghai Dibai Biotechnology Co., Ltd., with the batch number HH06. Both the test compounds and the control compound were prepared into 10 mM stock solutions using DMSO. Phosphate buffered saline (PBS), with pH of 4.0 and 7.4, was used to test the solubility of the test compounds.
Treatment of test compound and control compound: 30 μL of test compound or control compound stock solution (10 mM) per well was added in a specially made solubility sample plate, and then 970 μL of PBS with different pH was added to each well (pH was 4.0 and 7.4, respectively). Repeated wells were set in the test. A stir bar was added to each well that was covered with a polytetrafluoroethylene or silica gel plug. Stirring was performed at 25° C. at 1100 rpm for 2 hours. 10 μL of sample was taken from each well, and then 990 μL of water and acetonitrile mixture (including internal standard substance) was added to mix well, followed by filtering with a filter plate.
Standard treatment: 10 mM stock solution was diluted with DMSO to 300 μM, then 10 μL of compound diluent was taken, and 990 μL of water and acetonitrile mixture (including internal standard substance) was added to mix well and formulated into a standard solution with the final concentration 3 μM.
The solubility sample plate was placed in the autosampler and the LC-MS/MS method was used for analysis. The concentration of the test compound was calculated by the response value of the test compound and standard, and the concentration of the standard.

Data set [2] has as its system zebrafish non-alcoholic fatty liver. Description: Fat reduction or elimination effect on thioacetamide-induced zebrafish non-alcoholic fatty liver (Oil Red O staining). In kind it is in vivo. The settings on record: for The total optical density of liver fat: mean ± SE, n = 10. On the procedure: 40 mM stock solution of test compounds 4, 5, 6, 7, 46, 67, 78, 85, 92 and 101 were prepared with DMSO, and stored in a refrigerator at −20° C. The positive control compound S-adenosylmethionine (SAM) was purchased from Aladdin Reagent (Shanghai) Co., Ltd., with the batch number F1523051, which was prepared into a 50 mM stock solution with DMSO. The control compound silymarin was purchased from Shanghai Dibai Biotechnology Co., Ltd., with the batch number EE09, which was prepared into a 40 mM stock solution with DMSO. Thioacetamide was purchased from Sigma-Aldrich, with the batch number BCBV3031, which wasprepared into a 1 M stock solution with DMSO. Oil Red O was purchased from Sigma-Aldrich, with the batch number SLBP5248V. 4% paraformaldehyde was purchased from Dingguo Biotechnology Co., Ltd., with the batch number 773001800. Propylene glycol was purchased from Sinopharm Chemical Reagent Co., Ltd., with the batch number 20170615.
The melanin allele mutant translucent Albino line zebrafish was reproduced in natural paired mating. The fish age was 3 days after fertilization, with 30 fish per experimental group.
The above zebrafish were raised in fish farming water at 28° C. (water quality: 200 mg instant sea salt was added to 1 L of reverse osmosis water, conductivity was 480-510 μS/cm; pH was 6.9-7.2; hardness was 53.7-71.6 mg/L CaCOs), the experimental animal use license number was: SYXK (Zhejiang) 2012-0171. Feeding management met the requirements of international AAALAC certification.
Three days after fertilization, the normal melanin allele mutant translucent Albino strain of zebrafish was randomly selected and placed in a six well plate with 30 fish per well (i.e. each experimental group), and then thioacetamide with the final concentration of 7 mM was used to treat zebrafish for 72 hours to establish the non-alcoholic fatty liver model.
The zebrafish were transferred to a six-well plate, with 30 fish per well (i.e., each experimental group) randomly. Non-alcoholic fatty liver model in zebrafish were induced by thioacetamide. 40 mM test compounds 4, 5, 6, 7, 46, 67, 78, 85, 92 and 101 were quantitatively transferred to a six-well plate, and diluted with water to the corresponding concentration. Test compounds 4, 5, 6 and 7 were formulated into two dose groups with final concentration of 100 μM and 200 μM, respectively; test compound 46 was formulated into a dose group with final concentration of 200 μM; test compounds 67, 78, 85, 92 and 101 were formulated into dose groups with a final concentration of 100 μM; 50 mM positive control SAM was formulated with water to a dose group with final concentration of 50 μM, and a 40 mM positive control silymarin was formulated with water to two concentration dose groups with final concentration of 100 μM and 200 μM. A normal control group (zebrafish treated with fish farming water) and a model control group were set at the same time, and the total volume of each well was 3 mL. Except for the normal control group, the other experimental groups were treated with thioacetamide for 72 hours and stained with Oil Red O. After staining, 10 zebrafish were randomly selected from each experimental group and photographed under a dissecting microscope, NIS-Elements D 3.10 advanced image processing software was used to perform image analysis and collect data, the total optical density (S) of zebrafish liver fat was statistically analyzed, and for the inhibitory effect of each experimental group on liver steatosis of zebrafishwas evaluated by the following formula, the results of statistical analysis were expressed as mean±SE: Inhibition rate of liver steatosis (%)=[S(model control group)−S(test compound group)]/[S(model control group)−S(normal control group)]×100%
Statistical analysis was performed using analysis of variance and Dunnett's T-test, and p<0.05 indicated a significant difference. […]

Data set [3] concerns adults with nonalcoholic steatohepatitis (NASH) and fibrosis stages F2-F3. The settings on record: phase II clinical results; cited from earlier work.
Another data set relates to NASH mice. Briefly: Efficacy on non-alcoholic steatohepatitis (NASH) mice fed high-fat feed. In kind it is in vivo, C57BL/6 mice. The following applies: for Liver coefficient (liver weight/body weight) / Liver weight: 28 days; for Liver weight: X ± SD. On the procedure: The test compounds were 4 and 7, respectively; the positive control silymarin was purchased from Shanghai Dibai Biotechnology Co., Ltd., with the batch number HH06.
Low-dose group (35 mg/kg) solution preparation: the quantitative test compound was precisely weighed and a certain amount of normal saline was added to prepare the oral suspension solution with the concentration of 3.5 mg/mL. The administration volume was 10 mL/kg.
High-dose group (70 mg/kg) solution preparation: the quantitative test compound was precisely weighed and a certain amount of normal saline was added to prepare the oral suspension solution with the concentration of 7.0 mg/mL. The administration volume was 10 mL/kg.
High-fat feed: basic feed ingredients were corn, flour, imported fish meal, soybean meal, secondary meal, yeast meal, soybean oil, etc. The high-fat feed was prepared from 73.6% basic feed with 10% lard, 10% egg yolk powder, 5% sucrose, 1.2% cholesterol and 0.2% pig bile salt.
Source, species, strain: C57BL/6 mice, provided by Beijing Vital River Laboratory Animal Technology Co., Ltd. Nanjing Branch (experimental animal production license: SCXK (Su) 2016-0003); experimental animal use license: SYXK (Jun) 2012-0049; age: 6-8 weeks at the beginning of dosing; weight: 18-22 g; gender: half male and half female.
After 3 days of adaptive feeding with normal feed, the mice were randomly assigned according to body weight: 8 mice were fed with normal feed and set as normal control (NC); the rest of mice were fed with high-fat feed until the end of the experiment. The mice were weighed and recorded every 3 days. After feeding with high-fat diet for 56 days (8 weeks), blood samples were collected from the orbital vein of mice to detect the blood biochemical indexes to identify whether the modelling was successful.
After successful modeling, the mice in the high-fat feed group were randomly divided into 6 groups with 8 animals in each group, including model group, compound 4 low dose group, compound 4 high dose group, compound 7 low dose group, compound 7 high dose group and silymarin high-dose group. The mice in each group were administered intragastrically according to the animal's body weight every day for 28 consecutive days (4 weeks). At the same time, during the administration period, the mice in each administration group and model group continued to be fed with high-fat feed until the end of the experiment. The normal control group was administered the corresponding volume of normal saline.
On the last day of the experiment, the mice in each group were fasted for 8 hours, blood was taken from the orbit and the serum was separated and then stored at −20° C. After blood collection, the mice were sacrificed and the liver was quickly separated, weighed and stored in a refrigerator at −80° C. Serum samples and liver tissue samples were subjected to determinations of serum triglyceride (TG), serum total cholesterol (TC), serum high-density lipoprotein (HDL-C), serum low-density lipoprotein (LDL-C), serum alanine aminotransferase (ALT), serum aspartate aminotransferase (AST), serum tumor necrosis factor alpha (TNFα), liver triglycerides (TG), liver total cholesterol (TC), liver malondialdehyde (MDA), liver superoxide dismutase (SOD); in addition, some livers of mice in the blank control group, model group, compound 7 low-dose group and silymarin high-dose group were fixed in neutral formaldehyde fixed solution and then HE staining was performed to analyzed the pathological changes of liver tissue.

The subject of data set [4] is Patients With Primary Biliary Cirrhosis. The settings on record: phase III study; cited from earlier work.
The mark [5] stands for this setting: Danio rerio, 100 μM, read-out: Inhibition rate of liver steatosis.

The compound `COc1cc(C2Oc3cc(C4Oc5cc(O)cc(OC)c5CC4O)cc(O)c3OC2CO)ccc1O` (stereo not shown) [Compound 85, 2-{8-hydroxy-3-(4-hydroxy-3-methoxyphenyl)-2-hydroxymethyl-2,3-dihydrobenzo[b][1,4]dioxan-6-yl}-5-methoxychroman-3,7-diol] yielded a solubility at 2 h in data set [1] (pH 4, aqueous buffer) of 160 µM (≈ 79.7 µg/mL). In data set [1] (pH 7.4, aqueous buffer), this compound returned a solubility at 2 h of 150 µM (≈ 75 µg/mL). Further, the “Solubility in PBS buffer solution compared with silymarin (in words)” value in data set [1] is on record as “significantly higher than that of silymarin”. For the same compound, in data set [2] (100 μM), the “Inhibition rate of liver steatosis” value was >100*** %, the “Therapeutic effect on non-alcoholic fatty liver of zebrafish (in words)” value was “significant therapeutic effects” and the “The total optical density of liver fat” value is reported as 17378 ± 710 Pixels. The inhibition at 100 µM in data set [2] (setting [5]) is more than 100%.

`COc1cc(O)c2c(c1)OC(c1cc(O)c3c(c1)OC(c1ccc(O)c(OC)c1)C(CO)O3)C(O)C2` (stereo not shown) [Compound 67, 2-{8-hydroxy-3-(4-hydroxy-3-methoxyphenyl)-2-hydroxymethyl-2,3-dihydrobenzo[b][1,4]dioxan-6-yl}-7-methoxychroman-3,5-diol] yielded a solubility at 2 h in data set [1] (pH 4, aqueous buffer) of 148 µM (≈ 73.9 µg/mL). This compound also returned a solubility at 2 h in data set [1] (pH 7.4, aqueous buffer) of 146 µM (≈ 72.9 µg/mL). Also, the “Solubility in PBS buffer solution compared with silymarin (in words)” value in data set [1] was “significantly higher than that of silymarin”. In data set [2] (100 μM), the “Inhibition rate of liver steatosis” value is listed as >100*** %, the “Therapeutic effect on non-alcoholic fatty liver of zebrafish (in words)” value is recorded as “significant therapeutic effects” and the “The total optical density of liver fat” value was determined as 16667 ± 469 Pixels. Besides, the inhibition at 100 µM in data set [2] (setting [5]) is more than 100%.

Turning to `Cc1cc(F)c(C(=O)Nc2cccc(-c3nncn3C(C)C)n2)cc1-n1cnc(C2CC2)c1` [GS-4997], the “subjects with improved fibrosis after treatment” value in data set [3] is on record as 43%.

`COc1cc(C2Oc3cc(C4Oc5cc(O)cc(O)c5C(O)C4O)cc(O)c3OC2CO)ccc1O` (stereo not shown) [Compound 4, 2-{8-hydroxy-3-(4-hydroxy-3-methoxyphenyl)-2-hydroxymethyl-2,3-dihydrobenzo[b][1,4]dioxan-6-yl}chroman-3,4,5,7-tetraol] came in with a TG in the data set with NASH mice (35 mg/kg/day) of 1.21 ± 0.05 mmol/L. Besides, in the data set on NASH mice (35 mg/kg/day intragastric), the “Liver coefficient (liver weight/body weight)” value was 4.43 ± 0.31 % and the Liver weight is 1.39 ± 0.03 g. This compound also showed a TG in the data set with NASH mice (70 mg/kg/day) of 1.18 ± 0.06 mmol/L. In the data set on NASH mice (70 mg/kg/day intragastric), the “Liver coefficient (liver weight/body weight)” value turned out to be 4.54 ± 0.33 % and the Liver weight turned out to be 1.43 ± 0.03 g. Besides, the “Therapeutic effect on non-alcoholic steatohepatitis in mice (in words)” value in the data set with NASH mice (35 and 70 mg/kg) is on record as “significant therapeutic effects”. In the data set with NASH mice (liver, 35 mg/kg/day), this compound gave an MDA of 2.91 ± 0.42 nmol/mg, an SOD of 18.08 ± 3.90 U/mg and a TC of 1.51 ± 0.06 mmol/L. In the data set with NASH mice (liver, 70 mg/kg/day), the MDA is recorded as 2.80 ± 0.21 nmol/mg, the SOD is on record as 17.42 ± 4.16 U/mg and the TC was 1.51 ± 0.11 mmol/L. Also, in the data set on NASH mice (serum, 35 mg/kg/day), the ALT turned out to be 89.08 ± 18.93 U/L, the AST was found to be 140.13 ± 13.93 U/L, the HDL-C is listed as 0.95 ± 0.33 mmol/L and the LDL-C was 2.55 ± 0.50 mmol/L. Besides, in the data set with NASH mice (serum, 35 mg/kg/day), the TC is reported as 2.59 ± 0.32 mmol/L, the TG is 1.18 ± 0.02 mmol/L and the TNF-α is 414.20 ± 13.46 ng/L. Moreover, in the data set with NASH mice (serum, 70 mg/kg/day), the ALT came out at 98.29 ± 75.07 U/L, the AST is listed as 120.04 ± 12.55 U/L, the HDL-C came to 0.97 ± 0.37 mmol/L and the LDL-C was 2.13 ± 0.54 mmol/L. Also, in the data set on NASH mice (serum, 70 mg/kg/day), the TC was 2.58 ± 0.30 mmol/L, the TG was 1.24 ± 0.16 mmol/L and the TNF-α is given as 415.80 ± 13.54 ng/L. In addition, in data set [2] (100 μM), the “Therapeutic effect on non-alcoholic fatty liver of zebrafish (in words)” value was “significant therapeutic effects” and the “The total optical density of liver fat” value is given as 18598 ± 608 Pixels. In addition, in data set [2] (200 μM), the “Therapeutic effect on zebrafish non-alcoholic fatty liver (in words)” value is given as “significant therapeutic effect” and the “The total optical density of liver fat” value stood at 17802 ± 487 Pixels. For the same compound, the inhibition at 100 µM in data set [2] (setting [5]) was found to be 83%. In addition, the inhibition at 200 µM in data set [2] (Danio rerio, 200 μM, read-out: Inhibition rate of liver steatosis) amounted to 99%.

Turning to `CC[C@H]1[C@@H](O)[C@@H]2[C@H](CC[C@]3(C)[C@@H]([C@H](C)CCC(=O)O)CC[C@@H]23)[C@@]2(C)CC[C@@H](O)C[C@@H]12` [Obeticholic acid], the “patients with serious cardiovascular adverse events” value in data set [4] was 3%.

What is called solubility is how much of the substance goes into solution per volume. Low values mean little dissolved substance, high ones much dissolved substance. Usually inhibition stands for the change of the read-out against control, counted positive when it falls.
